Assay results published in patent US11981661B2, “Heterocyclic compounds” (Hoffmann-La Roche Inc., priority 2020, dated 2024).

Molecular target: T1, MAGL (Homo sapiens, UniProt Q99685)
T1 sequence (Q99685 1-303): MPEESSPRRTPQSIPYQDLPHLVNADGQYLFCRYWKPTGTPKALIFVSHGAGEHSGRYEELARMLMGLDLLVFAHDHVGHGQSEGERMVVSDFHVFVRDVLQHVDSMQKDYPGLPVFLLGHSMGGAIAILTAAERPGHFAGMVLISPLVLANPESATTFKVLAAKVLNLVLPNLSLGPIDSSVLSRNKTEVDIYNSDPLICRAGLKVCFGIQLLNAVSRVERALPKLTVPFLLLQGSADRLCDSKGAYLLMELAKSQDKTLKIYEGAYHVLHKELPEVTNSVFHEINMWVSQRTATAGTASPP
Experiment: 2-AG assay (MAGL inhibitory activity, hydrolysis of 2-arachidonoylglycerol followed by mass spectrometry)
Assay type: biochemical
Conditions: 50 pM MAGL, 8 μM 2-arachidonoylglycerol, 15 min preincubation, 30 min incubation at RT, concentration range 12.5 μM to 0.8 pM
How it was run: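 50 pM MAGL preincubated 15 min at RT with compound (12.5 μM to 0.8 pM) in 50 mM TRIS, 1 mM EDTA, 0.01% Tween, then 8 μM 2-arachidonoylglycerol for 30 min at RT. Arachidonic acid measured by RapidFire SPE–triple quadrupole MS in negative mode, normalised to d8-arachidonic acid.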

Question: How did the IC50 turn out when O=C1N[C@H](CCC(=O)N2CC(c3cnc(C4CC5(CCC5)C4)cn3)C2)CO1 [Example 164, (4R)-4-[3-Oxo-3-[3-(5-spiro[3.3]heptan-2-ylpyrazin-2-yl)azetidin-1-yl]propyl] oxazolidin-2-one] was run?
Answer: 0.012 µM

Question: With CC(C)(C)Cc1nnc(C23CC(C4CN(C(=O)CC[C@@H]5COC(=O)N5)C4)(C2)C3)o1 [Example 165, (4R)-4-[3-[3-[3-[5-(2,2-Dimethyl-propyl)-1,3,4-oxadiazol-2-yl]-1-bicyclo[1.1.1]pentanyl]azetidin-1-yl]-3-oxo-propyl] oxazolidin-2-one] as the compound, how does the IC50 read?
Answer: 0.024 µM

Question: How did the IC50 turn out when O=C1N[C@H](CCC(=O)N2CC(OCc3ccc(S(=O)(=O)C(F)(F)F)cc3)C2)CO1 [Example 166, (4R)-4-[3-Oxo-3-[3-[[4-(trifluoro-methylsulfonyl)phenyl]methoxy]azetidin-1-yl]propyl]oxazolidin-2-one] was run?
Answer: 0.048 µM

Question: Which IC50 does the source give for O=C1N[C@H](CCC(=O)N2CC(OCc3cccc(S(=O)(=O)C(F)(F)F)c3)C2)CO1 [Example 167, (4R)-4-[3-Oxo-3-[3-[[3-(trifluoro-methylsulfonyl)phenyl]methoxy]azetidin-1-yl]propyl]oxazolidin-2-one] here?
Answer: 0.027 µM

Question: How did the IC50 turn out when O=C1N[C@H](CCC(=O)N2CC(c3noc(-c4ccc(C(F)(F)F)nc4)n3)C2)CO1 [Example 168, (4R)-4-[3-Oxo-3-[3-[5-[6-(trifluoromethyl)-3-pyridyl]-1,2,4-oxadiazol-3-yl]azetidin-1-yl]propyl]oxazolidin-2-one] was run?
Answer: 2.02 µM

Question: How did the IC50 turn out when O=C1N[C@H](CCC(=O)N2CC(c3noc(C45CC(C(F)(F)F)(C4)C5)n3)C2)CO1 [Example 169, (4R)-4-[3-Oxo-3-[3-[5-[3-(trifluoromethyl)-1-bicyclo[1.1.1]pentanyl]-1,2,4-oxadiazol-3-yl]azetidin-1-yl]propyl] oxazolidin-2-one] was run?
Answer: 0.854 µM

Question: For CC(C)(O)C1CN(c2ccc(C3CN(C(=O)CC[C@@H]4COC(=O)N4)C3)cn2)C1 [Example 170, (4R)-4-[3-[3-[6-[3-(1-Hydroxy-1-methyl-ethyl)azetidin-1-yl]-3-pyridyl]azetidin-1-yl]-3-oxo-propyl]oxazolidin-2-one], which IC50 is on record?
Answer: 0.329 µM

Question: How did the IC50 turn out when O=C1N[C@H](CCC(=O)N2CC(c3ccc(C4(CO)CC4)cc3)C2)CO1 [Example 171, (4R)-4-[3-[3-[4-[1-(Hydroxy-methyl)cyclo-propyl]phenyl]azetidin-1-yl]-3-oxo-propyl] oxazolidin-2-one] was run?
Answer: 0.021 µM

Question: O=C1N[C@H](CCC(=O)N2CC(c3ccc(N4CC5(CCCO5)C4)nc3)C2)CO1 [Example 172, (4R)-4-[3-[3-[6-(5-Oxa-2-azaspiro[3.4]octan-2-yl)-3-pyridyl]azetidin-1-yl]-3-oxo-propyl]oxazolidin-2-one] was tested. Which IC50 did it give?
Answer: 0.827 µM

Question: With O=C1N[C@H](CCC(=O)N2CC(c3ccc(N4CCC5(C4)CC5(F)F)nc3)C2)CO1 (stereo partly drawn) [Example 173, (4R)-4-[3-[3-[6-(2,2-Difluoro-5-azaspiro[2.4]heptan-5-yl)-3-pyridyl]azetidin-1-yl]-3-oxo-propyl]oxazolidin-2-one] as the compound, how does the IC50 read?
Answer: 0.045 µM

Question: With O=C1N[C@H](CCC(=O)N2CC(c3ccc(Oc4cnc(C(F)(F)F)cn4)cc3)C2)CO1 [Example 174, (4R)-4-[3-Oxo-3-[3-[4-[5-(trifluoromethyl)pyrazin-2-yl]oxyphenyl]azetidin-1-yl]propyl]oxazolidin-2-one] as the compound, how does the IC50 read?
Answer: 0.02 µM

Question: O=C1N[C@H](CCC(=O)N2CC(c3ccc(NCC4(C(F)(F)F)CC4)cn3)C2)CO1 [Example 175, (4R)-4-[3-Oxo-3-[3-[5-[[1-(trifluoromethyl)cyclopropyl]methylamino]-2-pyridyl]azetidin-1-yl]propyl]oxazolidin-2-one] was tested. Which IC50 did it give?
Answer: 0.017 µM

Question: For O=C1N[C@H](CCC(=O)N2CC(c3cnc(NCC4(C(F)(F)F)CC4)cn3)C2)CO1 [Example 176, (4R)-4-[3-Oxo-3-[3-[5-[[1-(trifluoromethyl)cyclopropyl]methylamino]pyrazin-2-yl]azetidin-1-yl]propyl] oxazolidin-2-one], which IC50 is on record?
Answer: 0.012 µM

Question: Which IC50 does the source give for O=C1N[C@H](CCC(=O)N2CC(c3ccc(-c4nc(C5CC5)n[nH]4)cc3)C2)CO1 [Example 177, (4R)-4-[3-[3-[4-(3-Cyclo-propyl-1H-1,2,4-triazol-5-yl)phenyl]azetidin-1-yl]-3-oxo-propyl]oxazolidin-2-one] here?
Answer: 0.353 µM

Question: O=C1N[C@H](CCC(=O)N2CC(c3ccc(-c4nc(C5(C(F)(F)F)CC5)n[nH]4)cc3)C2)CO1 [Example 178, (4R)-4-[3-Oxo-3-[3-[4-[3-[1-(trifluoro-methyl)cyclo-propyl]-1H-1,2,4-triazol-5-yl]phenyl]azetidin-1-yl]propyl]oxazolidin-2-one] was tested. Which IC50 did it give?
Answer: 0.181 µM

Question: For CS(=O)(=O)c1cccc(CC2CC3(C2)CN(C(=O)CC[C@@H]2COC(=O)N2)C3)c1 [Example 179, (4R)-4-[3-[6-[(3-Methyl-sulfonylphenyl)methyl]-2-azaspiro[3.3]heptan-2-yl]-3-oxo-propyl]oxazolidin-2-one], which IC50 is on record?
Answer: 0.046 µM

Question: For CS(=O)(=O)c1ccc(CC2CC3(C2)CN(C(=O)CC[C@@H]2COC(=O)N2)C3)cc1 [Example 180, (4R)-4-[3-[6-[(4-Methyl-sulfonylphenyl)methyl]-2-azaspiro[3.3]heptan-2-yl]-3-oxo-propyl]oxazolidin-2-one], which IC50 is on record?
Answer: 0.093 µM

Question: For O=C1N[C@H](CCC(=O)N2CC3(CC(Cc4ccc(C(F)(F)F)nn4)C3)C2)CO1 [Example 181, (4R)-4-[3-Oxo-3-[6-[[6-(trifluoro-methyl)pyridazin-3-yl]methyl]-2-azaspiro[3.3]heptan-2-yl]propyl] oxazolidin-2-one], which IC50 is on record?
Answer: 0.227 µM

Question: How did the IC50 turn out when O=C1N[C@H](CCC(=O)N2CC3(CC(Cc4cnc(C(F)(F)F)nc4)C3)C2)CO1 [Example 182, (4R)-4-[3-Oxo-3-[6-[[2-(trifluoro-methyl)pyrimidin-5-yl]methyl]-2-azaspiro[3.3]heptan-2-yl]propyl] oxazolidin-2-one] was run?
Answer: 0.246 µM

Question: O=C1N[C@H](CCC(=O)N2CC3(CC(Cc4ncc(C(F)(F)F)cn4)C3)C2)CO1 [Example 183, (4R)-4-[3-Oxo-3-[6-[[5-(trifluoro-methyl)pyrimidin-2-yl]methyl]-2-azaspiro[3.3]heptan-2-yl]propyl] oxazolidin-2-one] was tested. Which IC50 did it give?
Answer: 0.084 µM

Question: Which IC50 does the source give for CS(=O)(=O)c1cc(F)cc(CC2CC3(C2)CN(C(=O)CC[C@@H]2COC(=O)N2)C3)c1 [Example 184, (4R)-4-[3-[6-[(3-Fluoro-5-methylsulfonyl-phenyl)methyl]-2-azaspiro[3.3]heptan-2-yl]-3-oxo-propyl]oxazolidin-2-one] here?
Answer: 0.059 µM

Question: With O=C1N[C@H](CCC(=O)N2CC3(CC(n4cnc(C5CC5)n4)C3)C2)CO1 [Example 185, (4R)-4-[3-[6-(3-Cyclopropyl-1,2,4-triazol-1-yl)-2-azaspiro [3.3]heptan-2-yl]-3-oxo-propyl] oxazolidin-2-one] as the compound, how does the IC50 read?
Answer: 0.464 µM

Question: With O=C1N[C@H](CCC(=O)N2CC3(CC(Cc4cccc(S(=O)(=O)C(F)(F)F)c4)C3)C2)CO1 [Example 186, (4R)-4-[3-Oxo-3-[6-[[3-(trifluoro-methylsulfonyl)phenyl]methyl]-2-azaspiro[3.3]heptan-2-yl]propyl] oxazolidin-2-one] as the compound, how does the IC50 read?
Answer: 0.002 µM

Question: For O=C1N[C@H](CCC(=O)N2CC3(CN(Cc4ccc(S(=O)(=O)C(F)(F)F)cc4)C3)C2)CO1 [Example 187, (4R)-4-[3-Oxo-3-[6-[[4-(trifluoro-methylsulfonyl)phenyl]methyl]-2,6-diazaspiro [3.3]heptan-2-yl]propyl] oxazolidin-2-one], which IC50 is on record?
Answer: 0.206 µM

Question: For O=C1N[C@H](CCC(=O)N2CC3(CCC(Cc4ccc(C(F)(F)F)nc4)CC3)C2)CO1 [Example 188, (4R)-4-[3-Oxo-3-[7-[[6-(trifluoro-methyl)-3-pyridyl]methyl]-2-azaspiro[3.5]nonan-2-yI]propyl] oxazolidin-2-one], which IC50 is on record?
Answer: 0.025 µM

Question: With O=C1N[C@H](CCC(=O)N2CC3(CCC(Cc4ccc(C(F)(F)F)cn4)CC3)C2)CO1 [Example 189, (4R)-4-[3-Oxo-3-[7-[[5-(trifluoro-methyl)-2-pyridyl]methyl]-2-azaspiro[3.5]nonan-2-yl]propyl] oxazolidin-2-one] as the compound, how does the IC50 read?
Answer: 0.016 µM

Question: How did the IC50 turn out when O=C1N[C@H](CCC(=O)N2CC3(CCC(Cc4cnc(C(F)(F)F)cn4)CC3)C2)CO1 [Example 190, (4R)-4-[3-Oxo-3-[7-[[5-(trifluoro-methyl)pyrazin-2-yl]methyl]-2-azaspiro[3.5]nonan-2-yl]propyl] oxazolidin-2-one] was run?
Answer: 0.14 µM

Question: With O=C1N[C@H](CCC(=O)N2CC3(CCC(Cc4ccc(OC(F)F)nc4)CC3)C2)CO1 [Example 191, (4R)-4-[3-[7-[[6-(Difluoro-methoxy)-3-pyridyl]methyl]-2-azaspiro[3.5]nonan-2-yl]-3-oxo-propyl] oxazolidin-2-one] as the compound, how does the IC50 read?
Answer: 0.037 µM

Question: For CS(=O)(=O)c1ccc(CN2CCC3(CC2)CN(C(=O)CC[C@@H]2COC(=O)N2)C3)cc1 [Example 192, (4R)-4-[3-[7-[(4-Methyl-sulfonylphenyl)methyl]-2,7-diazaspiro[3.5]nonan-2-yl]-3-oxo-propyl] oxazolidin-2-one], which IC50 is on record?
Answer: 1.22 µM

Question: For CS(=O)(=O)c1cccc(CN2CCC3(CC2)CN(C(=O)CC[C@@H]2COC(=O)N2)C3)c1 [Example 193, (4R)-4-[3-[7-[(3-Methyl-sulfonylphenyl)methyl]-2,7-diazaspiro[3.5]nonan-2-yl]-3-oxo-propyl] oxazolidin-2-one], which IC50 is on record?
Answer: 0.794 µM

Question: Which IC50 does the source give for O=C1N[C@H](CCC(=O)N2CC3(CCN(Cc4ccc(S(=O)(=O)C(F)(F)F)cc4)CC3)C2)CO1 [Example 194, (4R)-4-[3-Oxo-3-[7-[[4-(trifluoro-methylsulfonyl)phenyl]methyl]-2,7-diazaspiro[3.5]nonan-2-yl]propyl] oxazolidin-2-one] here?
Answer: 0.061 µM
